# Data published in publication PMC10148624, “Discovery of diarylpyrimidine derivatives bearing piperazine sulfonyl as potent HIV-1 nonnucleoside reverse transcriptase inhibitors” (Communications Chemistry, 2023).
# Values joined by “and” are separate entries in the source; they are usually repeats but may differ in a detail not shown here. Equal values may be shown once. Read-outs that look alike come from different tables or passages of the source.
# Legend:
# HIV-1 WT (IIIB) [1] = details: cited from earlier work; for EC50: MT-4 cells, MTT method, same laboratory, same method
# [2] = system: HIV-1 K103N/Y181C double mutant (RES056); details: cited from earlier work
# MT-4 cells = details: mock-infected MT-4 cells, MTT method, same laboratory; cited from earlier work
# HIV-1 E138K = test: microbe, parasite or virus in culture; assay type: cell-based; details: Human immunodeficiency virus 1, MT4, read-out: EC50 E138K
# Procedure: (§1) compounds were made directly in flat-bottomed 96-well microtiter trays by adding 100 μL medium to the 25 μL stock solution and transferring 25 μL of this solution to another well that contained 100 μL medium using a Biomek 3000 robot (Beckman Instruments, Fullerton, CA). Untreated control HIV- and mock-infected cell samples were included for each sample. HIV-1 WT strain (IIIB), HIV-1 drug-resistant strains including […]
# (§2) (50% cell culture infectious dose) or culture medium was added to either the infected or mock-infected wells of the microtiter tray. Mock-infected cells were used to evaluate the effect of test compounds on uninfected cells in order to assess its cytotoxicity.
# (§3) Exponentially growing MT-4 cells were centrifuged for 5 min at 1000 rpm and the supernatant was discarded.
# (§4) 50 μL volumes were transferred to the microtiter tray wells. Five days after infection, the viability of mock- and HIV-infected cells was examined spectrophotometrically by […]
# (§5) concentration of the test compound that reduced the viability of the mock-infected MT- […]
# HIV-1 L100I = test: microbe, parasite or virus in culture; assay type: cell-based; details: Human immunodeficiency virus 1, MT4, read-out: EC50 L100I
# Procedure: as §1, §2, §3, §4, §5
# HIV-1 K103N = test: Anti-HIV-1 activity against K103N mutant strain, MTT method in MT-4 cells; assay type: cell-based; details: Human immunodeficiency virus 1, MT4, read-out: EC50 K103N
# Text: (§6) According to the anti-HIV-1(WT) results, the promising compounds 18a(1–5), 18b(1–5) and 18c1 were chosen to further evaluate their inhibitory potency against the prevalent HIV-1 mutations, including L100I, K103N, Y181C, Y188L, E138K, and F227L/V106A. […]. page 20:
# (§7) or mock-infected wells of the microtiter tray. Mock-infected cells were used to evaluate
# (§8) supernatant was discarded.
# (§9) Five days after infection,
# (§10) 4 cells by 50%. […]
# HIV-1 Y188L = test: Anti-HIV-1 activity against Y188L mutant strain, MTT method in MT-4 cells; assay type: cell-based; details: Human immunodeficiency virus 1, MT4, read-out: EC50 Y188L
# Text: as §6, §7, §8, §9, §10
# HIV-1 F227L/V106A = test: Anti-HIV-1 activity against F227L/V106A mutant strain, MTT method in MT-4 cells; assay type: cell-based; details: for EC50: Human immunodeficiency virus 1, MT4, read-out: EC50 F227L/V106A
# Text: as §6, §7, §8, §9, §10
# WT HIV-1 RT = target: T1, WT HIV-1 RT (Human immunodeficiency virus type 1 group M subtype B, UniProt P04585); test: biochemical
# T1 construct: purchased Roche
# Procedure: Section 4. HIV-1 RT inhibition assays
# A reverse transcriptase (RT) assay kit produced by Roche was selected for the RT inhibition assay.3 All the reagents for performing the RT reaction came with the kit and the ELSIA procedures for RT inhibition assay was carried out following the description in the kit protocol. Briefly, the reaction mixture containing template/primer complex, viral nucleotides (dNTPs) and RT in the incubation buffer with or without inhibitors was incubated for 1 h at 37 °C . After that, the reaction mixture was transferred to a streptavidine coated microtiter plate and incubated for another 1 h at 37 °C to make sure retranscriptional cDNA chain that consisted biotin labeled dNTPs bound to streptavidine. Then unbound dNTPs were removed using washing buffer and anti-DIG-POD working solution was added. After incubation for 1 h at 37 °C , the DIG-labeled dNTPs incorporated in cDNA were bound to the anti-DIG-POD antibody. The unbound
# [3] = system: HIV-1 K103N/Y181C double mutant (RES056); test: microbe, parasite or virus in culture; assay type: cell-based
# Procedure: (§11) The biological results were determined as EC50 (anti-HIV potency), CC50 (cytotoxicity) and SI (selectivity index, the ratio of CC50/EC50). […]
# as §1, §2, §3, §4, §5
# HIV-1 WT (IIIB) [4] = test: microbe, parasite or virus in culture; assay type: cell-based
# Procedure: as §11, §1, §2, §3, §4, §5
# in vitro = details: human
# Procedure: as §11, §1, §2, §3, §4, §5
# HIV-1 Y181C = test: Anti-HIV-1 activity against Y181C mutant strain, MTT method in MT-4 cells; assay type: cell-based
# Text: as §7, §8, §9, §10
# physchem = assay type: physicochemical; details: pH 7, aqueous buffer, kinetic from dmso stock
# Procedure: (§12) Section 7. Water solubility measurements
# temperature overnight. The saturated solution was filtrated through a filter membrane
# UV. The sample was performed in triplicate. For quantification, a model LC-20AT
# The flow rate was 1.0 mL/min,
# and injection volume was 20 μL. Aqueous concentration was determined by
# Section 8. CYP enzyme inhibition assay
# CYP2C19 = CYP2C19 (Homo sapiens, UniProt P33261); test: in vitro; details: human, microsomes
# Sequence of CYP2C19 (P33261 whole entry): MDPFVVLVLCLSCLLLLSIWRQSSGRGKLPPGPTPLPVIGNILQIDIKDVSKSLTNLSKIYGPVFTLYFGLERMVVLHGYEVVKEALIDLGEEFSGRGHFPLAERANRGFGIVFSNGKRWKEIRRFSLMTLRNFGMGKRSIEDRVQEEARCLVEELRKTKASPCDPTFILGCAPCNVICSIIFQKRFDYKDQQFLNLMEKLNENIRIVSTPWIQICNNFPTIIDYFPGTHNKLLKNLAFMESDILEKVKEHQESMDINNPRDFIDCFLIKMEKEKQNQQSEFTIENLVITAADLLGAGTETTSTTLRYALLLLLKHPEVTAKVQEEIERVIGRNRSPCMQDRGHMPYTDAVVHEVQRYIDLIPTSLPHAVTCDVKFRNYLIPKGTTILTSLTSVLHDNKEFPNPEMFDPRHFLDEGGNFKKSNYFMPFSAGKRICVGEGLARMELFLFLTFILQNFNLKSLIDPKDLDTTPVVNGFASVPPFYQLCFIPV
# Text: (§13) Section 8. CYP enzyme inhibition assay […]
# (§14) Agilent 1200 LC/MSD (Agilent, USA).
# CYP2C9 = CYP2C9 (Homo sapiens, UniProt P11712); test: in vitro; details: human, microsomes
# Sequence of CYP2C9 (P11712 whole entry): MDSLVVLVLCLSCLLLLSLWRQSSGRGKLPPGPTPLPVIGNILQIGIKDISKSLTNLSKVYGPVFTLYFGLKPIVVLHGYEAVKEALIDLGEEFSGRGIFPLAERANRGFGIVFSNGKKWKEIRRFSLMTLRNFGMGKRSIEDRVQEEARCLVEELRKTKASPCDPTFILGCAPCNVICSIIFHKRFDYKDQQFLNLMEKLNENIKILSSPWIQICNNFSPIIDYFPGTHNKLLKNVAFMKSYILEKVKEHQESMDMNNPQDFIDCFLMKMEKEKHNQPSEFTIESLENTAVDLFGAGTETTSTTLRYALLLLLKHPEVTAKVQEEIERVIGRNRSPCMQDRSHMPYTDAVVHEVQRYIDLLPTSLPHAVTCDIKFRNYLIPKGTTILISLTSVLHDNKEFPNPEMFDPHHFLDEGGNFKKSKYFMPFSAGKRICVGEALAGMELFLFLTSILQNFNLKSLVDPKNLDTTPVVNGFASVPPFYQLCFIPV
# Text: as §13, §14
# CYP2D6 = CYP2D6 (Homo sapiens, UniProt P10635); test: in vitro; details: human, microsomes, IC50 CYP2D6
# Sequence of CYP2D6 (P10635 whole entry): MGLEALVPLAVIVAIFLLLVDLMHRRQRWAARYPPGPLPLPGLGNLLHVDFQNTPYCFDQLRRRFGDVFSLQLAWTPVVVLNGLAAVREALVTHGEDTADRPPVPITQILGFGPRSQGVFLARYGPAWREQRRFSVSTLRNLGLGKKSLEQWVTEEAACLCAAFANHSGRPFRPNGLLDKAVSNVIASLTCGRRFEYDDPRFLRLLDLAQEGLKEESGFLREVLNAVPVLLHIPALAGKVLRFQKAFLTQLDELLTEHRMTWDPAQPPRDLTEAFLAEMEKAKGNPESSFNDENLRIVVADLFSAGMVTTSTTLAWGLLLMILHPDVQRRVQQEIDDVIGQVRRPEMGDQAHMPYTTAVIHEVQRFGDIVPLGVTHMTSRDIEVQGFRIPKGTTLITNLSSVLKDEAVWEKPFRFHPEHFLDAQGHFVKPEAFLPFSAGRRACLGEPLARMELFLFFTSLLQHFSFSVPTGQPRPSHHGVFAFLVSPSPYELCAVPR
# Procedure: Fig. S3 Decomposition of the binding free energy (per-residue) into contributions from electrostatic energy, vdw energy, polar solvation energy, and non-polar solvation energy. a K103N-18b1. b […]
# as §12
# Water solubility was measured in phosphate buffer at pH 7.0 by using an HPLC-UV method.17 Compounds were initially dissolved in DMSO at 10 mg/mL 10 μL of this stock solution was spiked into purified water (1 mL) with the final DMSO concentration being 1%. The mixture was ultrasonic for 2 h at room temperature and restored at room temperature overnight. The saturated solution was filtrated through a filter membrane (pore size = 0.22 μm) and transferred to other Eppendorf tubes for analysis by HPLC-UV. The sample was performed in triplicate. For quantification, a model LC-20AT HPLC-UV (SHIMADZU) system was used with an Inertsil ® ODS-SP-C18 column (150 mm × 4.6 mm, 5 μm) and MeOH/water as eluant. The flow rate was 1.0 mL/min, and injection volume was 20 μL. Aqueous concentration was determined by comparison of the peak area of the saturated solution with a standard curve plotted peak area versus known concentrations, which were prepared by solutions in MeOH at 200, […]
# as §13
# Section 9. Pharmacokinetics studies […]
# approval from the Animal Ethical and Welfare Committee (AEWC). Ten male […]
# Blood samples (200 μL of blood
# Briefly, 50 μL of plasma was […]
# tube, which was centrifuged at 3000g for 10 min. The supernatant layer was collected […]
# Standard curves for 18b1 in […]
# with an internal standard to blank plasma. Then all samples were quantified with an […]
# in vivo = details: male, Sprague-Dawley, rat, plasma
# Procedure: (§15) SpragueDawley (SD) rats (180−200 g) were randomly divided into two groups to
# (§16) receive oral administration (10 mg/kg) or intravenous (2 mg/kg). A solution of
# (§17) compound 18b1 was prepared by dissolving in a mixture of polyethylene glycol (PEG)
# (§18) 400/normal saline (70/30, V/V) before the experiment. Blood samples (200 μL of blood
# (§19) each times) of the intravenous group were collected from the sinus jugular into
# (§20) h after dosing, and blood samples (200 μL of blood each times) of the oral
# (§21) used to determine the concentration of 18b1 in plasma. Briefly, 50 μL of plasma was
# (§22) and a 20 μL aliquot was injected for LCMS/MS analysis. Standard curves for 18b1 in
# (§23) blood were generated by the addition of S10 various concentrations of 18b1 together
# [5] = In vivo pharmacokinetics in Sprague-Dawley rats; details: SD rat, 2.0 mg/kg i.v., mean ± SD, n = 3
# Procedure: as §15, §16, §17, §18, §19, §20, §21, §22, §23
# [6] = selectivity index, ratio of CC50/EC50
smiles,measurement,setting,value
"Cn1c(Cn2ccc(C(F)(F)F)c(Oc3cc(Cl)cc(C#N)c3)c2=O)n[nH]c1=O [DOR, doravirine]",EC50,HIV-1 WT (IIIB) [1],13 ± 4 nM
same,SI IIIB,HIV-1 WT (IIIB) [1]; ratio of CC50/EC50,">21,940"
same,EC50,"[2]; MT-4 cells, MTT method, same laboratory, same method",15 ± 6 nM
same,SI RES056,[2]; ratio of CC50/EC50,>20136
same,CC50,MT-4 cells,> 294 µM
Cc1cc(/C=C/C#N)cc(C)c1Oc1ccnc(Nc2ccc(CN3CCN(S(C)(=O)=O)CC3)cc2)n1 [BH-11c],EC50,HIV-1 E138K,9.4 ± 5 nM
same,EC50,HIV-1 L100I,14 ± 5.3 nM
same,EC50,HIV-1 K103N,3.7 ± 1.6 nM
same,EC50,HIV-1 Y188L,1320 ± 220 nM
same,EC50,HIV-1 F227L/V106A,210 ± 95 nM
"Cc1cc(/C=C/C#N)cc(C)c1Nc1ccnc(Nc2ccc(C#N)cc2)n1 [RPV, rilpivirine]",IC50,WT HIV-1 RT,430 ± 87 nM
same,EC50,HIV-1 WT (IIIB) [1],1 ± 0.27 nM
Cc1cc(/C=C/C#N)cc(C)c1Oc1ccnc(Nc2ccc(N3CCN(S(C)(=O)=O)CC3)c(C#N)c2)n1 [Compound 18b1],EC50,"[3]; Human immunodeficiency virus 1, MT4, read-out: EC50 RES056",93 ± 19 nM
same,SI RES056,[3]; [6],110
same,EC50,"HIV-1 WT (IIIB) [4]; Human immunodeficiency virus 1, IIIB, MT4, read-out: EC50 IIIB",1.4 ± 0.19 nM
same,SI IIIB,HIV-1 WT (IIIB) [4]; [6],7171
same,CC50 at 5 days,in vitro,10.2 ± 1.82 µM
same,EC50,HIV-1 E138K,6.4 ± 0.54 nM
same,EC50,HIV-1 L100I,3.7 ± 0.62 nM
same,EC50,HIV-1 K103N,1.7 ± 0.32 nM
same,EC50,"HIV-1 Y181C; Human immunodeficiency virus 1, MT4, read-out: EC50 Y181C, MT-4 cells, MTT method, mean ± SD, n ≥ 4",6.4 ± 0.67 nM
same,fold potency enhancement over ETR,"HIV-1 Y181C; Y181C strain, ratio of EC50",2.8 fold
same,EC50,HIV-1 Y188L,740 ± 210 nM
same,fold more potent than lead compound BH-11c,"HIV-1 F227L/V106A; F227L/V106A strain, ratio of EC50",~ 20 fold
same,EC50,HIV-1 F227L/V106A,9.9 ± 1.6 nM
same,IC50,"WT HIV-1 RT; read-out: IC50 against WT HIV-1 RT, inhibition of biotin deoxyuridine triphosphate incorporation into HIV-1 IIIB RT by 50%, mean ± SD, n = 2",93 ± 17 nM
same,solubility,physchem,13.5 ± 0.49 µg/mL
same,IC50 at 10 min,CYP2C19,8 µM
same,IC50 at 10 min,CYP2C9,5.3 µM
same,IC50 at 10 min,CYP2D6,> 10 µM
same,AUC(0-inf),"in vivo; iv, 2 mg/kg",792 ± 74.9 ng·h/mL
same,AUC(0-t),"in vivo; iv, 2 mg/kg",785 ± 73.9 ng·h/mL
same,Cmax,"in vivo; iv, 2 mg/kg",1230 ± 96.1 ng/mL
same,Tmax,"in vivo; iv, 2 mg/kg",0.08 h
same,clearance,"in vivo; iv, 2 mg/kg",42.3 mL/min/kg
same,half-life,"in vivo; iv, 2 mg/kg",145 ± 20.4 min
same,bioavailability,"in vivo; oral, 10 mg/kg",1.34%
same,AUC(0-inf),"in vivo; po, 10 mg/kg",53.2 ± 8.32 ng·h/mL
same,AUC(0-t),"in vivo; po, 10 mg/kg",45.1 ± 12.9 ng·h/mL
same,Cmax,"in vivo; po, 10 mg/kg",16.1 ± 6.59 ng/mL
same,Tmax,"in vivo; po, 10 mg/kg",3.5 ± 2.78 h
same,half-life,"in vivo; po, 10 mg/kg",183 ± 86.4 min
same,V,[5],8.81 L/kg and 8.81 ± 0.72 L/kg
